Measured values from patent US8426429B2, “2-amino-quinazoline derivatives useful as inhibitors of β-secretase (BACE)” (Jansssen Pharmaceutica N.V., priority 2004, dated 2013).

Target: T1, β-secretase (BACE) (Homo sapiens, UniProt P56817)
T1 construct: purchased Panvera
Assay: BACE FS1 % Inhibition Assay
Type: biochemical
Experimental: The following reagents were used in this assay: sodium acetate, PEG8000 (Sigma), DMSO, HEPES, FS1 substrate [[…]] […] The FS1-substrate stock solution was prepared in DMSO as a 10 mg/mL solution. The FS1-substrate working solution was prepared by diluting the 10 mg/mL stock solution with substrate assay buffer to a final concentration of 300 μg/mL. The β-secretase (BACE) working solution was prepared by diluting a 0.83 mg/mL BACE stock solution with enzyme assay buffer to a final concentration of 4 μg/mL. Test compounds were dissolved in DMSO to 10 mM. […] The screening procedure for this assay was as follows: 15 μL of BACE working solution was pipetted into each well of a 96-well plate. To each well was then pipetted 2 μL of test compound at the selected concentration. Test compound and BACE were then mixed with a pipettor and incubated for 20 min at room temperature. To each well was then added 10 μL of the FS1 substrate working solution. The plates were then incubated for 1 hour at room temperature. […] The procedure for the blank was as follows. 15 μL of assay buffer was pipetted into each well to be used as a blank control. To each well was then added 2 μL of vehicle and 10 μL of FS1-substrate working solution. The plates were then incubated for 1 hour at room temperature. […] The procedure for the positive control was as follows: 15 μL of BACE working solution was pipetted into each well to be used as a positive control. To each well was then pipetted 2 μL of vehicle. Vehicle and BACE were then mixed with a pipettor and incubated for 20 min at room temperature. To each well was then added 10 μL of the FS1 substrate working solution. The plates were then incubated for 1 hour at room temperature. […] For test compounds, % inhibition was determined at each concentration as follows: [formula]

T1 sequence (P56817 46-501): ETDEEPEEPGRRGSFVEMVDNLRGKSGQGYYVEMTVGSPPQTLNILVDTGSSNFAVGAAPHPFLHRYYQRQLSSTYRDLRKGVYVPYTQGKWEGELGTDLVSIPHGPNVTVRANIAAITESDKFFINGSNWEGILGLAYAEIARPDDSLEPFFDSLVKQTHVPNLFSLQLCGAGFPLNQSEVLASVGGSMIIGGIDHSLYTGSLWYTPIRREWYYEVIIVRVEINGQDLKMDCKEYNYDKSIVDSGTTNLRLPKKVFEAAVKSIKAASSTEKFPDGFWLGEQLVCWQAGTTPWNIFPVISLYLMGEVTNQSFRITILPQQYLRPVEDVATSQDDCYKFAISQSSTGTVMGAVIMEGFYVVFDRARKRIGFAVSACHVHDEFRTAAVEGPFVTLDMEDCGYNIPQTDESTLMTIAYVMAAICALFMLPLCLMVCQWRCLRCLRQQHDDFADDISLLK

Structure (SMILES) | % Inhibition (FS) (3 μM test compound) [%] | % Inhibition (FS) (10 μM test compound) [%] | % Inhibition (FS) (0.3 μM test compound) [%] | % Inhibition (FS) (1 μM test compound) [%] | other results
COC(=O)C1CCCC(N(C)C(=O)CCC(C2CCCCC2)N2Cc3cc(Oc4ccccc4)ccc3N=C2N)C1 (mixture of isomers) [Compound 777] | – | – | – | – | % Inhibition (FS) (0.3 μM compound, FS1 substrate): 38%; % Inhibition (FS) (1 μM compound, FS1 substrate): 97%
CCCC(CCCC(=O)N(C)C1CCCCC1)N1Cc2cc(Oc3ccccc3)ccc2N=C1N (stereo not drawn) [Compound 90] | 106 | 124 | – | – | –
CCCC(CCCC(=O)NC1CCCCC1)N1Cc2cc(Oc3ccccc3)ccc2N=C1N (stereo not drawn) [Compound 91] | 68 | 117 | – | – | –
CCCC(CCCC(=O)N(C)C1CCN(C)CC1)N1Cc2cc(Oc3ccccc3)ccc2N=C1N (stereo not drawn) [Compound 106] | 103 | 114 | – | – | –
NC1=Nc2ccc(Oc3ccccc3)cc2CN1CCCCNC(=O)C1CCCCC1 [Compound 115] | 40 | 105 | – | – | –
NC1=Nc2ccc(Oc3ccccc3)cc2CN1CCCCNC(=O)C1CCCC1 [Compound 116] | 39 | 81 | – | – | –
CN(C(=O)c1ccc2c(c1)C(N1Cc3cc(Oc4ccccc4)ccc3N=C1N)c1ccccc1-2)C1CCCCC1 (stereo not drawn) [Compound 118] | – | – | – | – | % Inhibition (FS) (3 μM test compound, 3 µM): 48%; % Inhibition (FS) (10 μM test compound, 10 µM): 91%
NC1=Nc2ccc(Oc3ccccc3)cc2CN1C1CCN(C(=O)C2CCCCC2)C1 (stereo not drawn) [Compound 119] | 42 | 75 | – | – | –
NC1=Nc2ccc(Oc3ccccc3)cc2CN1C1CCN(C(=O)C2CCCC2)C1 (stereo not drawn) [Compound 120] | <30 | 34 | – | – | –
NC1=Nc2ccc(Oc3ccccc3)cc2CN1C1c2ccccc2-c2cccc(C(=O)N(C3CCCCC3)C3CCCCC3)c21 (stereo not drawn) [Compound 124] | 56 | 67 | – | – | –
CCCC(CCC(=O)NC1CCCCCC1)N1Cc2cc(Oc3ccccc3)ccc2N=C1N (stereo not drawn) [Compound 128] | 97 | 108 | – | – | –
CCCC(CCC(=O)NC1CCCCC1)N1Cc2cc(Oc3ccccc3)ccc2N=C1N (stereo not drawn) [Compound 129] | 113 | 113 | – | – | –
NC1=Nc2ccc(Oc3ccccc3)cc2CN1C(c1ccccc1)c1cccc(C(=O)N(C2CCCCC2)C2CCCCC2)c1 (stereo not drawn) [Compound 132] | 54 | 118 | – | – | –
CCCC(CCCC(=O)NC1CCCCCC1)N1Cc2cc(Oc3ccccc3)ccc2N=C1N (stereo not drawn) [Compound 137] | 82 | 107 | – | – | –
NC1=Nc2ccc(Oc3ccccc3)cc2CN1CCNC(=O)C1CC1c1ccccc1 (stereo not drawn) [Compound 139] | <30 | 61 | – | – | –
CCCCCCCCCC(=O)NCCN1Cc2cc(Oc3ccccc3)ccc2N=C1N [Compound 142] | <30 | 38 | – | – | –
NC1=Nc2ccc(Oc3ccccc3)cc2CN1CCCNC(=O)C1CC1 [Compound 143] | <30 | 32 | – | – | –

Structure (SMILES) | % Inhibition (FS) (3 μM test compound) [%] | % Inhibition (FS) (10 μM test compound) [%] | % Inhibition (FS) (0.3 μM test compound) [%] | % Inhibition (FS) (1 μM test compound) [%] | other results
NC1=Nc2ccc(Oc3ccccc3)cc2CN1CCCNC(=O)C1CCC1 [Compound 144] | 39 | 59 | – | – | –
CN(C(=O)c1ccc2c(c1)C(N1Cc3cc(Oc4ccccc4)ccc3N=C1N)CC2)C1CCCCC1 (stereo not drawn) [Compound 145] | <30 | 37 | – | – | –
COc1ccc2c(c1)C(CC(=O)N(C)C1CCCCC1)CC2N1Cc2cc(Oc3ccccc3)ccc2N=C1N (stereo not drawn) [Compound 146] | <30 | 39 | – | – | –
NC1=Nc2ccc(Oc3ccccc3)cc2CN1C1c2ccccc2-c2c(C(=O)N(C3CCCCC3)C3CCCCC3)cccc21 (stereo not drawn) [Compound 147] | <30 | 71 | – | – | –
CCCCCC(CCC(=O)NC1CCCCCC1)N1Cc2cc(Oc3ccccc3)ccc2N=C1N (stereo not drawn) [Compound 150] | 90 | – | <30 | <30 | –
NC1=Nc2ccc(Oc3ccccc3)cc2CN1CCNC(=O)CCc1ccccc1 [Compound 155] | <30 | 49 | – | – | –
CC(C)(C)c1ccc(C(=O)NCCN2Cc3cc(Oc4ccccc4)ccc3N=C2N)cc1 [Compound 156] | <30 | 40 | – | – | –
CCCCc1ccc(C(=O)NCCN2Cc3cc(Oc4ccccc4)ccc3N=C2N)cc1 [Compound 157] | <30 | 50 | – | – | –
CN(C(=O)c1cccc(CN2Cc3cc(-c4cn[nH]c4)ccc3N=C2N)c1)C1CCCCC1 [Compound 161] | <30 | – | <30 | <30 | –
CN(C(=O)c1cccc(CN2Cc3cc(-c4ccc(C(N)=O)cc4)ccc3N=C2N)c1)C1CCCCC1 [Compound 162] | <30 | – | <30 | <30 | –
CN(C(=O)c1cccc(CN2Cc3cc(-c4cccc(C(=O)O)c4)ccc3N=C2N)c1)C1CCCCC1 [Compound 163] | <30 | – | <30 | 33 | –
CC(=O)Nc1cccc(-c2ccc3c(c2)CN(Cc2cccc(C(=O)N(C)C4CCCCC4)c2)C(N)=N3)c1 [Compound 166] | 74 | – | <30 | 37 | –
CN(C(=O)c1cccc(CN2Cc3cc(-c4ccncc4)ccc3N=C2N)c1)C1CCCCC1 [Compound 168] | <30 | – | <30 | <30 | –
CN(C(=O)c1cccc(CN2Cc3cc(-c4cccc(-c5ccccc5)c4)ccc3N=C2N)c1)C1CCCCC1 [Compound 171] | 42 | – | <30 | 31 | –
CN(C)Cc1ccccc1-c1ccc2c(c1)CN(Cc1cccc(C(=O)N(C)C3CCCCC3)c1)C(N)=N2 [Compound 172] | <30 | – | <30 | <30 | –
CN(C(=O)c1cccc(CN2Cc3cc(-c4ccc5[nH]ccc5c4)ccc3N=C2N)c1)C1CCCCC1 [Compound 175] | 37 | – | <30 | <30 | –
NC1=Nc2ccc(Oc3ccccc3)cc2CN1CCC(=O)N(C1CCCCC1)C1CCCCC1 [Compound 180] | 77 | – | <30 | <30 | –

Now from value to molecule, other results behind:

% Inhibition (FS) (3 μM test compound) [%] | % Inhibition (FS) (10 μM test compound) [%] | % Inhibition (FS) (0.3 μM test compound) [%] | % Inhibition (FS) (1 μM test compound) [%] | Structure (SMILES) | other results
32 | – | <30 | <30 | CC(C)N(C(=O)CCN1Cc2cc(Oc3ccccc3)ccc2N=C1N)C(C)C [Compound 181] | –
38 | – | <30 | <30 | CCCCCC1CCC(C(=O)NCCN2Cc3cc(Oc4ccccc4)ccc3N=C2N)CC1 (stereo not drawn) [Compound 182] | –
31 | – | <30 | <30 | CC(C)(C)C1CCC(C(=O)NCCN2Cc3cc(Oc4ccccc4)ccc3N=C2N)CC1 (stereo not drawn) [Compound 184] | –
39 | – | <30 | <30 | CC1CCC(N(C(=O)c2cccc(CN3Cc4cc(Oc5ccccc5)ccc4N=C3N)c2)C2CCC(C)CC2)CC1 (stereo not drawn) [Compound 187] | –
<30 | – | <30 | <30 | NC1=Nc2ccc(Oc3ccccc3)cc2CN1Cc1cccc(C(=O)NCCc2ccc(S(N)(=O)=O)cc2)c1 [Compound 188] | –
<30 | – | <30 | <30 | CN(C)c1ccc(C(=O)NCCN2Cc3cc(Oc4ccccc4)ccc3N=C2N)cc1 [Compound 189] | –
101 | – | 51 | 86 | CC(C)CC(=O)NCCN1Cc2cc(Oc3ccccc3)ccc2N=C1N [Compound 190] | –
88 | – | <30 | 46 | CC1CCC(C(=O)NCCN2Cc3cc(Oc4ccccc4)ccc3N=C2N)CC1 (stereo not drawn) [Compound 191] | –
67 | – | <30 | 34 | NC1=Nc2ccc(Oc3ccccc3)cc2CN1Cc1cccc(C(=O)N2CCC3CCCCC3C2)c1 (stereo not drawn) [Compound 193] | –
38 | – | <30 | 42 | CCCCCC1CC2(C(=O)NCCN3Cc4cc(Oc5ccccc5)ccc4N=C3N)CCC1CC2 (stereo not drawn) [Compound 194] | –
<30 | – | <30 | <30 | NC1=Nc2ccc(Oc3ccccc3)cc2CN1CCNC(=O)c1ccc(-c2ccccc2)cc1 [Compound 195] | –
32 | – | <30 | <30 | CCCN(CC1CC1)C(=O)c1cccc(CN2Cc3cc(Oc4ccccc4)ccc3N=C2N)c1 [Compound 197] | –
<30 | – | <30 | <30 | CCCCC(CC)CN(CC(CC)CCCC)C(=O)c1cccc(CN2Cc3cc(Oc4ccccc4)ccc3N=C2N)c1 (stereo not drawn) [Compound 198] | –
